Reference: PubChem BioAssay AID248 (DTP/NCI, 2004)
“And” between values parts separate entries of the source, which are not always exact repeats. Equal entries are not always repeated. Toxic doses and inconclusive results are not listed. Rule as the data show it: active = T/C of 150% or more; inactive = T/C below 125%.

Tested on: L1210 leukemia ip in BDF1 mice, survival T/C
Experiment: NCI In Vivo Anticancer Drug Screen. Data for tumor model L1210 Leukemia (intraperitoneal) in B6D2F1 (BDF1) mice
Settings: endpoint: mean survival time, higher = longer survival
Method in brief: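 Ratio derived from survival: compound-dosed mice over vehicle-dosed mice, all bearing a transplantable tumor.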

[1] = dose: 100.0 mg/kg/injection, schedule: Q01DX009 (ip), vehicle: saline
[2] = dose: 100.0 mg/kg/injection, schedule: Q04DX003 (ip), vehicle: saline
[3] = dose: 200.0 mg/kg/injection, schedule: Q01DX009 (ip), vehicle: saline
[4] = dose: 200.0 mg/kg/injection, schedule: Q04DX003 (ip), vehicle: saline
[5] = dose: 400.0 mg/kg/injection, schedule: Q01DX009 (ip), vehicle: saline
[6] = dose: 400.0 mg/kg/injection, schedule: Q04DX003 (ip), vehicle: saline
[7] = dose: 100.0 mg/kg/injection, schedule: Q01DX001 (ip), vehicle: carboxymethylcellulose (CMC)
[8] = dose: 200.0 mg/kg/injection, schedule: Q01DX001 (ip), vehicle: carboxymethylcellulose (CMC)
[9] = dose: 400.0 mg/kg/injection, schedule: Q01DX001 (ip), vehicle: carboxymethylcellulose (CMC)
[10] = dose: 100.0 mg/kg/injection, schedule: Q01DX009 (ip), vehicle: saline with Tween-80
[11] = dose: 200.0 mg/kg/injection, schedule: Q01DX009 (ip), vehicle: saline with Tween-80
[12] = dose: 400.0 mg/kg/injection, schedule: Q01DX009 (ip), vehicle: saline with Tween-80
[13] = dose: 100.0 mg/kg/injection, schedule: Q01DX009 (ip), vehicle: Klucel (hydroxypropylcellulose) (HPC)
[14] = dose: 100.0 mg/kg/injection, schedule: Q04DX003 (ip), vehicle: saline with Tween-80
[15] = dose: 200.0 mg/kg/injection, schedule: Q04DX003 (ip), vehicle: saline with Tween-80
[16] = dose: 400.0 mg/kg/injection, schedule: Q04DX003 (ip), vehicle: saline with Tween-80
[17] = dose: 100.0 mg/kg/injection, schedule: Q01DX001 (ip), vehicle: Klucel (hydroxypropylcellulose) (HPC)
[18] = dose: 100.0 mg/kg/injection, schedule: Q01DX001 (ip), vehicle: saline
[19] = dose: 200.0 mg/kg/injection, schedule: Q01DX001 (ip), vehicle: saline
[20] = dose: 400.0 mg/kg/injection, schedule: Q01DX001 (ip), vehicle: saline

Measured: T/C

CN(C)C1(C)CCC2C3CCC4=CC(=O)CCC4(C)C3CCC21C (stereo unspecified)
inactive: dose: 50.0 mg/kg/injection, schedule: Q01DX001 (sc), vehicle: steriod suspending solution 98 % of control | dose: 100.0 mg/kg/injection, schedule: Q01DX001 (sc), vehicle: steriod suspending solution 98 % of control | dose: 200.0 mg/kg/injection, schedule: Q01DX001 (sc), vehicle: steriod suspending solution 95 % of control | dose: 400.0 mg/kg/injection, schedule: Q01DX001 (sc), vehicle: steriod suspending solution 98 % of control

O=C1Nc2ccccc2Oc2ccccc21
inactive: [1] 105 % of control | [2] 92 % of control | [3] 93 % of control | [4] 91 % of control | [5] 98 % of control | [6] 92 % of control

O=C(O)c1cc(F)ccc1F
inactive: dose: 100.0 mg/kg/injection, schedule: Q04DX002 (ip), vehicle: Klucel (hydroxypropylcellulose) (HPC) 97 % of control | dose: 200.0 mg/kg/injection, schedule: Q04DX002 (ip), vehicle: Klucel (hydroxypropylcellulose) (HPC) 108 % of control

CN(C)c1ccc2c(c1)Cc1cc(NC(N)=O)ccc1-2
inactive: [7] 115 % of control | [8] 96 % of control | [9] 91 % of control

COC1OC2COC(c3ccccc3)OC2C(N=Cc2ccccc2)C1O (stereo unspecified)
inactive: [10] 97 % of control | [11] 101 % of control | [12] 98 % of control

CCOC(=O)c1cnc(SC)nc1Nc1ccc(Cl)cc1Cl
inactive: [13] 103 % of control | dose: 200.0 mg/kg/injection, schedule: Q01DX009 (ip), vehicle: Klucel (hydroxypropylcellulose) (HPC) 97 % of control | dose: 400.0 mg/kg/injection, schedule: Q01DX009 (ip), vehicle: Klucel (hydroxypropylcellulose) (HPC) 92 % of control

NS(=O)Oc1ccc(Nc2ncnc3nc[nH]c23)cc1 (stereo unspecified)
inactive: [10] 97 % of control | [14] 98 % of control | [11] 95 % of control | [15] 102 % of control | [12] 104 % of control | [16] 98 % of control

FC(F)(F)c1nc2nc(Cl)c(Cl)nc2n1CCCN1CCOCC1
inactive: [10] 117 % of control | [11] 107 % of control | [12] 103 % of control

O=C1CCC(N2C(=O)C3C4CCC(O4)C3C2=O)C(=O)O1 (stereo unspecified)
inactive: dose: 100.0 mg/kg/injection, schedule: Q04DX002 (ip), vehicle: saline 102 % of control | dose: 200.0 mg/kg/injection, schedule: Q04DX002 (ip), vehicle: saline 94 % of control | dose: 400.0 mg/kg/injection, schedule: Q04DX002 (ip), vehicle: saline 91 % of control

O=C(Nc1cccc(C(F)(F)F)c1)c1ccc(C(=O)Nc2cccc(C(F)(F)F)c2)cc1
inactive: [14] 95 % of control | [15] 90 % of control | [12] 96 % of control | [16] 95 % of control

CC12CC3CC(C1)CC(CC(N)=O)(C3)C2
inactive: [2] 98 % of control | [4] 103 % of control | [6] 98 % of control

O=C(O)C(=O)c1c(O)n(-c2ccccc2)c2ccccc12
inactive: dose: 25.0 mg/kg/injection, schedule: Q01DX001 (ip), vehicle: Klucel (hydroxypropylcellulose) (HPC) 95 % of control | dose: 50.0 mg/kg/injection, schedule: Q01DX001 (ip), vehicle: Klucel (hydroxypropylcellulose) (HPC) 95 % of control | [17] 93 % of control and 92 % of control

Fc1c(Cl)c(F)c(Cl)c(F)c1Cl
inactive: [7] 94 % of control | [8] 97 % of control | [9] 94 % of control

O=[N+]([O-])c1cccc(/C=N/n2cn[nH]c2=S)c1
inactive: dose: 100.0 mg/kg/injection, schedule: Q04DX003 (ip), vehicle: Klucel (hydroxypropylcellulose) (HPC) 94 % of control | dose: 200.0 mg/kg/injection, schedule: Q04DX003 (ip), vehicle: Klucel (hydroxypropylcellulose) (HPC) 94 % of control | dose: 400.0 mg/kg/injection, schedule: Q04DX003 (ip), vehicle: Klucel (hydroxypropylcellulose) (HPC) 96 % of control

C1CSC2(CCC(C3CCC4(CC3)SCCS4)CC2)S1 (stereo unspecified)
inactive: dose: 75.0 mg/kg/injection, schedule: Q01DX009 (ip), vehicle: saline 92 % of control | [18] 88 % of control | dose: 150.0 mg/kg/injection, schedule: Q01DX009 (ip), vehicle: saline 97 % of control | [19] 91 % of control | dose: 300.0 mg/kg/injection, schedule: Q01DX009 (ip), vehicle: saline 87 % of control | [20] 93 % of control

Oc1ccccc1C=Nc1ccc(I)cc1.Oc1ccccc1C=Nc1ccc(I)cc1.[Co]
inactive: [14] 96 % of control | [15] 108 % of control | [16] 102 % of control

Cn1c2c(c(=O)n(C)c1=O)NC1(N2)C(=O)Nc2ccccc21 (stereo unspecified)
inactive: [18] 101 % of control | [19] 98 % of control | [20] 101 % of control

C/C(=C\COC1CCCCO1)CCC1OC1(C)C (stereo unspecified)
inactive: [18] 103 % of control | [1] 108 % of control | [19] 100 % of control | [3] 98 % of control | [20] 100 % of control | [5] 101 % of control

CCOc1ccccc1N1C(=O)CSC1=S
inactive: dose: 200.0 mg/kg/injection, schedule: Q04DX002 (ip), vehicle: other 117 % of control | dose: 400.0 mg/kg/injection, schedule: Q04DX002 (ip), vehicle: other 95 % of control

CCOC(=O)N1NC(=O)CC1(C)C
inactive: [2] 105 % of control | [4] 105 % of control | [6] 102 % of control

O=C1C=CC(=O)C2C3C=CC(C3)C12 (stereo unspecified)
inactive: dose: 25.0 mg/kg/injection, schedule: Q01DX009 (ip), vehicle: Klucel (hydroxypropylcellulose) (HPC) 102 % of control | dose: 50.0 mg/kg/injection, schedule: Q01DX009 (ip), vehicle: Klucel (hydroxypropylcellulose) (HPC) 98 % of control | [13] 94 % of control and 102 % of control

C=CC[S][Pb]([c]1ccccc1)([c]1ccccc1)[c]1ccccc1
inactive: dose: 3.0 mg/kg/injection, schedule: Q01DX009 (ip), vehicle: Klucel (hydroxypropylcellulose) (HPC) 106 % of control | dose: 6.0 mg/kg/injection, schedule: Q01DX009 (ip), vehicle: Klucel (hydroxypropylcellulose) (HPC) 90 % of control | dose: 12.5 mg/kg/injection, schedule: Q04DX002 (ip), vehicle: Klucel (hydroxypropylcellulose) (HPC) 103 % of control | dose: 25.0 mg/kg/injection, schedule: Q04DX002 (ip), vehicle: Klucel (hydroxypropylcellulose) (HPC) 91 % of control

COC(=O)CNc1ccc(O)cc1
inactive: dose: 100.0 mg/kg/injection, schedule: Q04DX003 (ip), vehicle: other 102 % of control | dose: 200.0 mg/kg/injection, schedule: Q04DX003 (ip), vehicle: other 94 % of control | dose: 400.0 mg/kg/injection, schedule: Q04DX003 (ip), vehicle: other 88 % of control

CCOc1ccc(/C=C/C(=O)c2ccc(C)cc2)cc1OCC
inactive: dose: 75.0 mg/kg/injection, schedule: Q04DX003 (ip), vehicle: saline 100 % of control | dose: 150.0 mg/kg/injection, schedule: Q04DX003 (ip), vehicle: saline 102 % of control | dose: 300.0 mg/kg/injection, schedule: Q04DX003 (ip), vehicle: saline 105 % of control

CC(C)=C(Br)CC[C@@H](C)[C@H]1CC[C@@]2(C)C3=C(CC[C@]12C)[C@@]1(C)CC[C@H](O)C(C)(C)[C@@H]1CC3
inactive: dose: 62.0 mg/kg/injection, schedule: Q01DX Z (sc), vehicle: steriod suspending solution 102 % of control | dose: 125.0 mg/kg/injection, schedule: Q01DX Z (sc), vehicle: steriod suspending solution 95 % of control | dose: 250.0 mg/kg/injection, schedule: Q01DX Z (sc), vehicle: steriod suspending solution 95 % of control | dose: 500.0 mg/kg/injection, schedule: Q01DX Z (sc), vehicle: steriod suspending solution 95 % of control

NC(=NCc1ccccc1)C(F)(F)C(F)(F)F
inactive: dose: 44.0 mg/kg/injection, schedule: Q01DX Z (ip), vehicle: other 103 % of control and 118 % of control | dose: 66.0 mg/kg/injection, schedule: Q01DX Z (ip), vehicle: other 100 % of control and 101 % of control | dose: 100.0 mg/kg/injection, schedule: Q01DX Z (ip), vehicle: other 103 % of control and 90 % of control | dose: 150.0 mg/kg/injection, schedule: Q01DX Z (ip), vehicle: other 92 % of control and 90 % of control

Cc1cc(S(=O)(=O)O)cc(N)c1N
inactive: [17] 105 % of control | dose: 200.0 mg/kg/injection, schedule: Q01DX001 (ip), vehicle: Klucel (hydroxypropylcellulose) (HPC) 98 % of control | dose: 400.0 mg/kg/injection, schedule: Q01DX001 (ip), vehicle: Klucel (hydroxypropylcellulose) (HPC) 91 % of control
